Values joined by “and” are separate entries in the source; they are usually repeats but may differ in a detail not shown here. Equal values may be shown once. Active and inactive are the calls of the source.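 How the source made its calls: active means compounds giving half or more protection of infected cells from virus-caused growth loss, again on retest; inactive means the rest.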
Tested on: CEM cells HIV-1 protection, formazan growth assay
Test: NCI AIDS Antiviral Assay
Details: for IC50: measured here: growth of uninfected CEM cells
Protocol: The ability of compounds to protect human CEM cells from HIV-1 infection is measured as a screen for new compounds capable of inhibiting the HIV virus. Five concentrations of drug were tested on uninfected and infected cells and cell growth was measured using a soluble formazan assay. […] Compounds that provided at least 50% protection were retested. Compounds that provided at least 50% protection on retest were listed as moderately active. Compounds that reproducibly provided 100% protection were listed as confirmed active. […] Note that the inability to provide protection could be due to toxicity.

| Compound | EC50 [µM] | IC50 | outcome |
| --- | --- | --- | --- |
| CCOCC=NCC(=O)OCC | > 1450 | > 1450 µM |  |
| COc1ccc(C2(CN(C)C)COc3cc(OC)c(OC)cc3C2=O)cc1OC (configuration not stated) |  |  | inactive |
| CC1(C)C=C(/C=N/Nc2ccccc2)C(C#N)=C(O)C1(C#N)C#N | > 200 | 23.4 µM |  |
| c1ccc(-c2cc(-c3cccs3)c(-c3cccs3)s2)cc1 | > 200 | 36.3 µM |  |
| OCCN1CCN(CCCN2c3ccccc3Sc3ccc(Cl)cc32)CC1 | > 200 | 10 µM |  |
| CCOC(=O)C1S/C(=N\C(=N)N[N+](=O)[O-])N=C1C (configuration not stated) |  |  | inactive |
| COC(=O)[C@](C)(Cc1ccccc1)NC(=O)[C@@H](C)N1[C@@H](c2ccccc2)COC1(C)C | > 200 | > 200 µM |  |
| CC(=C/c1ccccc1)/C=C1/NC(=S)N(CN2CCCCCC2)C1=O | > 200 | 110 µM |  |
| O=S(=O)(O)c1cc(N/N=C/c2cc(S(=O)(=O)O)c3cccnc3c2O)ccc1/C=C/c1ccc(N/N=C/c2cc(S(=O)(=O)O)c3cccnc3c2O)cc1S(=O)(=O)O | 13.5 | 129 µM |  |
| NC1=NCCC1(c1ccccc1)c1ccccn1 (configuration not stated) | > 550 | 490 µM |  |
| CCOc1cc(N=Nc2cc(Cl)c(S(=O)(=O)O)cc2Cl)c2cc(S(=O)(=O)O)ccc2c1N=Nc1c(S(=O)(=O)O)cc2cc(NC(=O)c3ccc(N)cc3)ccc2c1O |  |  | active |
| CCOc1ccc(NC(=S)N/C=C(/C#N)C(N)=O)cc1 | > 200 | 158 µM |  |
| O=C1C=C(O)C(=Cc2c(O)cc(O)cc2O)C(O)=C1 |  |  | inactive |
| CC(NC1=NCCO1)c1cccc([N+](=O)[O-])c1 (configuration not stated) | > 200 | > 200 µM |  |
| CN1N=C(c2ccccc2)C(C(c2ccccc2[N+](=O)[O-])C2C(=O)N(C)N=C2c2ccccc2)C1=O (configuration not stated) | > 81.3 | 15.8 µM |  |
| Cc1cc(CO)c(O)c(C(=O)CC2CC(=O)NC(=O)C2)c1 | > 200 | 57.5 µM |  |
| COCS(=O)(=O)c1ccccc1 | > 708 | > 708 µM |  |
| CC1=N/C(=C\c2ccc(F)cc2)C(=O)O1 | > 25.1 | > 25.1 µM |  |
| O=[N+]([O-])c1ccc(/C=C/c2cc(-c3ccccc3)nc3ccc4ccccc4c23)cc1 | > 200 | > 200 µM |  |
| Nc1c(N=Nc2ccc(S(=O)(=O)c3ccc(N=Nc4cc(S(=O)(=O)O)c5cccc(S(=O)(=O)O)c5c4N)cc3)cc2)cc(S(=O)(=O)O)c2cccc(S(=O)(=O)O)c12 | 25.1 | 380 µM |  |

| Compound | EC50 [µM] | IC50 | outcome |
| --- | --- | --- | --- |
| Cc1nc2nn[nH]n2c(=O)c1CCO | > 200 | > 200 µM |  |
| C=C1C2CCC3(CCC4C5(C)CCCC4(C=[N+](CCO)C5)C3C2)C1O (configuration not stated) |  |  | inactive |
| c1ccc2c(c1)CCc1c(-c3noc4c3CCc3ccccc3-4)noc1-2 | > 148 | > 148 µM |  |
| O=C1/C(=C/c2ccc(Cl)cc2)CNC/C1=C\c1ccc(Cl)cc1 | > 151 | 10.5 µM and 1.05 µM |  |
| N#Cc1cccc(/C=C(/C(=O)c2ccccc2)c2ccccc2)c1 | > 17 | 9.55 µM |  |
| Cn1c2c(c3ccccc31)C(=O)CC2(C)C | > 123 | 66.1 µM |  |
| O=C(Nc1nc(Cl)nc(Cl)n1)N1CCOCC1 | > 200 | > 200 µM |  |
| CC(C)(C)NC(=O)c1ccccc1[Se][Se]c1ccccc1C(=O)NC(C)(C)C | 10.2 | 13.2 µM |  |
| Cc1cc(C)c(-c2no/c(=N\S(=O)(=O)c3ccc(Cl)cc3)o2)c(C)c1 | > 200 | > 200 µM |  |
| COC(=O)C(C(=O)c1ccccc1)C(C(=O)C(=O)Nc1ccc(OC)cc1OC)C(=O)C(=O)c1ccc(C)cc1 (configuration not stated) | > 457 | 407 µM |  |
| CC(C)OC(=O)c1ccc(NCC2=CC(=O)C=CC2=O)cc1Cl | > 200 | 9.33 µM |  |
| O=C1COC(c2ccccc2O)=NN1CCCN1CCCC1 | > 525 | 372 µM |  |
| Cc1ccc(N=N/C(=N/NC(=O)c2cc(Cl)ccc2C(=O)c2ccccc2)c2ccc(N(CCC#N)CCC#N)cc2C)cc1 | > 200 | 11.7 µM |  |
| CCCCCC[C@H]1CC(=O)C2CCCC[C@@]23CC[C@H](CCl)N13 (some centres not stated) (tested in a mixture with another compound) | > 200 | 105 µM |  |
| CSc1c(C#N)c(N)n(-c2ccc(C)cc2)c(=O)c1C#N | > 83.2 | 74.1 µM |  |
| CC1(C)CC(=O)c2c(nc3c(ccc4ccccc43)c2-c2ccc(NC(=O)CCCCC(=O)Nc3ccc(-c4c5c(nc6c4ccc4ccccc46)CC(C)(C)CC5=O)cc3)cc2)C1 | > 100 | 20 µM |  |
| Cc1ccc(-c2c3nc(c(-c4ccc(C)cc4)c4ccc([nH]4)c(-c4ccc(C)cc4)c4nc(c(-c5ccncc5)c5ccc2[nH]5)C=C4)C=C3)cc1.Cc1ccc(-c2c3nc(c(-c4ccc(C)cc4)c4ccc([nH]4)c(-c4ccc(C)cc4)c4nc(c(-c5ccncc5)c5ccc2[nH]5)C=C4)C=C3)cc1.Cc1ccc(-c2c3nc(c(-c4ccc(C)cc4)c4ccc([nH]4)c(-c4ccc(C)cc4)c4nc(c(-c5ccncc5)c5ccc2[nH]5)C=C4)C=C3)cc1.Cc1ccc(-c2c3nc(c(-c4ccc(C)cc4)c4ccc([nH]4)c(-c4ccc(C)cc4)c4nc(c(-c5ccncc5)c5ccc2[nH]5)C=C4)C=C3)cc1.O=S(=O)([O-])C(F)(F)F.[Pd] | > 25.1 | > 25.1 µM |  |
| COc1cc(C2OC(N)=C(C#N)C3=C2C(C)CCC3)cc(OC)c1OC (configuration not stated) |  |  | inactive |
| Cc1cn(COCCCO)c(=O)[nH]c1=O | > 200 | > 200 µM |  |

From PubChem BioAssay AID179 (DTP/NCI, 2004)
